Measurements from US9994905B2, “Methods for the diagnosis and treatment of pulmonary fibrosis in subjects with hermansky pudlak syndrome” (BROWN UNIVERSITY, priority 2014, dated 2018).
Where two headings read alike, the source gives them in different places.

How the values were obtained:
[1] = test system: Primary Type II alveolar epithelial cells; assay: Bleomycin-induced apoptosis (TUNEL) in primary Type II alveolar epithelial cells; format: cell-based, mouse; details: 500 ng/ml pre-treatment, 100 μg/ml bleomycin (FIG. 5A)
Description: End labeling of exposed 3′-OH ends of DNA fragments in paraffin-embedded tissue was undertaken with the TUNEL in situ cell death detection kit AP (Roche Diagnostics). SPC co-staining was performed using a goat anti-mouse SPC primary antibody (Santa Cruz) and Alexa Fluor 594 secondary antibody. After staining, 8-10 random pictures were obtained from each lung, and a minimum of 300 cells were visually evaluated in each section. The labeled cells were expressed as a percentage of total nuclei.
WT and pale ear mouse lungs were digested with collagenase and DNase I. The resulting suspension was filtered through Falcon cell strainers, and the cells were negatively selected with anti-CD16/CD32 antibodies. Cells were maintained in BEGM+5% charcoal-stripped FBS and 10 ng/ml KGF. A549 cells were obtained from the American Type Culture Collection (ATCC, Manassas, Va.) and maintained in DMEM+2 mM glutamine+10% FBS. Primary Type II Cells were pre-treated with 500 ng/ml recombinant CHI3L1, transfected with IL-13Rα2 construct, and stimulated with 100 μg/ml bleomycin. In A549 cells, HPS1, HPS4, Rab32, and Rab38 siRNA were co-transfected with IL-13Rα2 construct, and stimulated with 100 μg/ml bleomycin. Cells were cytospun onto slides. Immunofluorescence and/or TUNEL staining were performed as previously described.

[2] = biological target: CRTH2 (Mus musculus, UniProt Q9Z2J6); details: intratracheal bleomycin, 30 mg/kg IP every other day, Day 5 to Day 14; for bleomycin-induced collagen accumulation: Sircol on Day 14 (FIG. 6D)
Description: Sex-matched, 8-wk-old wild-type (WT), pale ear, CHI3L1^−/−, and CHI3L1Tgmice (≥5 mice/group) were exposed to a single bleomycin injection (1.25 U/kg; Teva Parenteral Medicines, Irvine, Calif.) via intratracheal administration. Mice were sacrificed and evaluated at Day 7 and Day 14 to examine apoptosis and fibrosis, respectively.
Animals were anesthetized, median sternotomy was performed, and right heart perfusion completed with calcium and magnesium-free PBS. The heart and lungs were then removed. The right lung was frozen in liquid nitrogen and stored at −80° C. until used. Collagen content was determined by quantifying total soluble collagen using the Sircol Collagen Assay kit (Biocolor, Accurate Chemical & Scientific Co., Westbury, N.Y.) according to the manufacturer's instructions.
Sex-matched, 8-wk-old wild-type (WT), pale ear, and CHI3L1 Tg mice (≥5 mice/group) were exposed to a single bleomycin injection (1.25 U/kg; Teva Parenteral Medicines, Irvine, Calif.) via intratracheal administration. Mice were treated with 30 mg/kg CAY10471 (Cayman Chemical) (IP, every other day) or DMSO control from Day 5 to Day 14.

CRTH2, sequence (Q9Z2J6 whole entry): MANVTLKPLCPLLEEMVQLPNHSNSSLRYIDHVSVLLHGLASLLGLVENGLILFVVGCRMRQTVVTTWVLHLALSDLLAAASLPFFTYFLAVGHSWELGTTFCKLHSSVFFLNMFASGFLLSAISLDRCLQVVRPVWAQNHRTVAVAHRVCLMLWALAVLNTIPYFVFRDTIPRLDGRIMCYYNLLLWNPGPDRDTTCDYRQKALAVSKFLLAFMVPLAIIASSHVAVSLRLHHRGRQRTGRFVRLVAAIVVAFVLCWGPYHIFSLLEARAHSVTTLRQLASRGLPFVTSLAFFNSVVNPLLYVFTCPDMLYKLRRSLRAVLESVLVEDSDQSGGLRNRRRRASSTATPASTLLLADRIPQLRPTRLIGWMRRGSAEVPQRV

With “Recombinant CHI3L1: recombinant chitinase 3-like-1 protein” the “bleomycin-induced apoptosis (TUNEL-positive cells)” value ([1]; cells from WT mice) was “powerful inhibitor” and the “bleomycin-induced apoptosis (TUNEL-positive cells)” value ([1]; cells from pale ear mice) was “did not decrease”.
With `CN(C1CCc2c(c3ccccc3n2CC(=O)O)C1)S(=O)(=O)c1ccc(F)cc1` (centres unmarked) [CAY10471] the “exaggerated fibrosis caused by CHI3L1 transgene activation during fibroproliferative repair” value ([2]; CHI3L1 Tg mice, Sircol on Day 14 (FIG. 6E)) was “abrogated”, the bleomycin-induced collagen accumulation ([2]; HPS1 null (pale ear) mice) was “decreased” and the bleomycin-induced collagen accumulation ([2]; WT mice) was “decreased”.
